Reference: US20250034136A1 (Nimbus Wadjet, Inc., priority 2023, published 2025)

tested on: p21 induction in HCT116 cells; assay: p21 induction in HCT116 cells; type: cell-based; details: Homo sapiens, HCT-116, 24 h, HCT116 cells, 24 h compound incubation; read-out: P21_EC50
Description: The colon carcinoma cell line HCT116 was obtained from ATCC and cultured in growth medium consisting of Mccoy's 5A Medium (Gibco 16600108) supplemented with 10% FBS (Transgene FS201-02) and 100 units/mL penicillin-streptomycin (Gibco 15140122) and maintained at 37° C. under 5% CO2. On the day of seeding, 2,000 cells in 30 μL of culture media were plated per well to Poly-D-Lysine 384 Well Black Clear Plates (Biocoat 356663) and incubated overnight at 37° C. under 5% CO2. The following day, compounds were serially diluted in DMSO for a total of 11 test concentrations. […] Next, 150 nL of diluted compound was added in duplicate to the assay plate, using an Echo 655 (Labcyte). The plate was centrifuged at 500 RPM for 1 min and then incubated at 37° C. under 5% CO2 for 24 h. After 24 h, medium was removed, and cells were fixed by adding 40 μL of 4% paraformaldehyde solution to each well and incubated for 20 min at room temperature. The plate was then washed 4 times with 100 μL per well of wash buffer (PBS with 0.1% Tween-20) using a microplate washer. Next, 30 μL of ice-cold methanol was added to each well and the plate was incubated at −20° C. for 10 min. The plate was washed 4 times with 100 μL per well of wash buffer by a microplate washer, then 30 μL per well of blocking buffer (Intercept PBS blocking buffer (LI-COR 927-70001) with 0.05% Tween-20) was added and the plate was incubated at room temperature with shaking for 2 h. Next, to each test well, 20 μL of primary antibody solution (p21 Waf1/CIP (12D1) RabbitmAb (Cell Signaling Technologies 2947) diluted 1:1000 and GAPDH (D4C6R) Mouse mAb (Cell Signaling Technologies 97166) diluted 1:2000 in blocking buffer) was added and the plate was placed at 4° C., overnight. The following day, the plate was washed 5 times with 100 μL per well of wash buffer using a microplate washer for 5 min. 20 μL per well of secondary antibody (IRDye 680CW Goat anti-Mouse IgG (H+L) (LI-COR 926-68070) diluted 1: 2000 in Blocking Buffer and IRDye 800CW Goat anti-Rabbit IgG (H+L) (LI-COR 926-32211) diluted 1: 2000 in Blocking Buffer) was then added and the plate was stored for 2 h in the dark at room temperature with shaking. The plate was then washed 4 times with 100 μL per well of wash buffer again using a microplate washer. Finally, the p21 signal and the GAPDH signal were quantified using a LI-COR Odyssey CLx Imager machine reading at 800 nm and 700 nm, respectively. Each plate contained DMSO control (low control) and an internal reference WRN inhibitor (high control) respectively. […] EC50 values for each compound were generated after non-linear regression curve fitting using commercially available software.

EC50 [nM] | Structure (SMILES)
< 500 | CCc1c(N2CCN(C(=O)c3ncnc(C)c3O)C3CCC32)c(=O)c2nc(N(C)C)cnc2n1CC(=O)Nc1ccc(C(F)(F)F)cc1Cl (racemic) [I-34, rac-N-(2-chloro-4-(trifluoromethyl)phenyl)-2-(2-(dimethylamino)-6-ethyl-7-(5-(5-hydroxy-6-methylpyrimidine-4-carbonyl)-2,5-diazabicyclo[4.2.0]octan-2-yl)-8-oxopyrido[2,3-b]pyrazin-5(8H)-yl)acetamide]
500 to 2000 | CCc1c(N2CCN(C(=O)c3ncnc(C)c3O)[C@H]3CC[C@H]32)c(=O)c2nc(N(C)C)cnc2n1CC(=O)Nc1ccc(C(F)(F)F)cc1Cl (racemic) [I-106, rac-N-(2-chloro-4-(trifluoromethyl)phenyl)-2-(2-(dimethylamino)-6-ethyl-7-(5-(5-hydroxy-6-methylpyrimidine-4-carbonyl)-2,5-diazabicyclo[4.2.0]octan-2-yl)-8-oxopyrido[2,3-b]pyrazin-5(8H)-yl)acetamide]
2000 to 5000 | CCc1c(N2CCN(C(=O)c3ncnc(C)c3O)[C@@H]3CC[C@H]32)c(=O)c2nc(N(C)C)cnc2n1CC(=O)Nc1ccc(C(F)(F)F)cc1Cl (single isomer, unassigned) [I-39, N-(2-chloro-4-(trifluoromethyl)phenyl)-2-(2-(dimethylamino)-6-ethyl-7-(−5-(5-hydroxy-6-methylpyrimidine-4-carbonyl)-2,5-diazabicyclo[4.2.0]octan-2-yl)-8-oxopyrido[2,3-b]pyrazin-5(8H)-yl)acetamide]
< 500 | CCc1c(N2CCN(C(=O)c3ncnc(C)c3O)[C@H]3CC[C@@H]32)c(=O)c2nc(N(C)C)cnc2n1CC(=O)Nc1ccc(C(F)(F)F)cc1Cl (single isomer, unassigned) [I-40, N-(2-chloro-4-(trifluoromethyl)phenyl)-2-(2-(dimethylamino)-6-ethyl-7-(−5-(5-hydroxy-6-methylpyrimidine-4-carbonyl)-2,5-diazabicyclo[4.2.0]octan-2-yl)-8-oxopyrido[2,3-b]pyrazin-5(8H)-yl)acetamide]

same assay, conditions: Homo sapiens, HCT-116, 24 h, read-out: P21_EC50

Structure (SMILES) | EC50 [nM]
[2H]C([2H])([2H])N(c1cnc2c(n1)c(=O)c(N1CCN(C(=O)c3ncnc(C)c3O)[C@H]3CC[C@@H]31)c(CC)n2CC(=O)Nc1ccc(C(F)(F)F)cc1Cl)C([2H])([2H])[2H] [I-101, 2-(2-(bis(methyl-d3)amino)-6-ethyl-7-((1S,6S)-5-(5-hydroxy-6-methylpyrimidine-4-carbonyl)-2,5-diazabicyclo[4.2.0]octan-2-yl)-8-oxopyrido[2,3-b]pyrazin-5(8H)-yl)-N-(2-chloro-4-(trifluoromethyl)phenyl)acetamide] | < 500

molecular target: WRN (BV08), human Werner helicase (Uniprot Q14191, amino acids 517-1235 with L1074F point mutation) (Homo sapiens (Human), UniProt Q14191, L1074F); assay: WRN (BV08) ADP-Glo assay; type: biochemical; details: class symbols A-E, read-out: ADP-Glo_hWRN_IC50
Sequence (Q14191 other isoform, or with tags, fused parts or gaps L1074F (already in the parent)): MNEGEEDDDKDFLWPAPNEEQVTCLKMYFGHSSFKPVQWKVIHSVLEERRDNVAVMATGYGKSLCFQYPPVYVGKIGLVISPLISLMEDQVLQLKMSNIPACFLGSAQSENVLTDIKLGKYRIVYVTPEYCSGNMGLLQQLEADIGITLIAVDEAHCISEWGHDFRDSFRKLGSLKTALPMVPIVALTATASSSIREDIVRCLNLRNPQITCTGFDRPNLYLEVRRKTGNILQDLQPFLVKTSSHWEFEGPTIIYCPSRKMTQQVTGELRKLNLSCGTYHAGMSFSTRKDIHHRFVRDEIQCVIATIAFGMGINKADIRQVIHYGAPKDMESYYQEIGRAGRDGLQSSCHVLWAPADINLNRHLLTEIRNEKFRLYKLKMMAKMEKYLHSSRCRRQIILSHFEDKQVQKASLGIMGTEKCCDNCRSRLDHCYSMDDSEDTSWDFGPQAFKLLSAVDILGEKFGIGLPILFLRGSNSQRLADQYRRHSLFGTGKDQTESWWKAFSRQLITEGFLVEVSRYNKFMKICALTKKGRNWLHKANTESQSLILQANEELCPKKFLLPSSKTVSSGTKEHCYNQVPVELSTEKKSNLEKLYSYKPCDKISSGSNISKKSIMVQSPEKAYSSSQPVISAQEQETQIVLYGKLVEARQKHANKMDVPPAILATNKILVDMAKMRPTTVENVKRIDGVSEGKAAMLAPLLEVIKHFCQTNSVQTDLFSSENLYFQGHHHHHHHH
Description: Bovine skin gelatin (BSG), dimethyl sulfoxide (DMSO), Pluronic F-127 and tris(2-carboxyethyl)phosphine hydrochloride solution (TCEP) were purchased from Sigma-Aldrich (St. Louis, MO) at the highest level of purity possible. […] DNA strands were annealed by heating to 95° C. for 5 minutes followed by slow cooling to room temperature. Compounds in 100% DMSO (0.1 μl) were spotted into a 384-well white polystyrene Optiplate-384 (Perkin Elmer; Waltham, MA) assay plate using a LabCyte Echo 550 (Agilent; Santa Clara, CA). DMSO (0.1 μl) was added to columns 12, rows A-H and column 24, rows I-P for the maximum signal control. […] Compounds/DMSO were preincubated for 15 minutes at 25° C. with 5 μl 2×WRN (BV08), prepared as described below, in assay buffer containing 20 mM Bicine (pH=7.5), 1 mM MgCl2, 10 mM KCl, 0.1% Pluronic F-127, 0.005% BSG, 1 mM TCEP. The reaction was initiated by the addition of 5 μl 2× substrate mixture in assay buffer and incubated for 60 minutes at 25° C. The final concentrations of the assay components were 0.15 nM WRN, 5 μM ATP, and 0.1 nM DNA duplex. The final DMSO concentration was 1% and the reference compound concentration (NSC-617145) used for the minimal signal control was 20 μM. The reaction was stopped by the addition of the ADP-Glo Kit components (Promega; Madison, WI) as directed and the relative luminescence units (RLU) were read on an Envision 2104 (Perkin Elmer; Waltham, MA). % inhibition calculation:
[formula] • Where RLU=relative luminescence units, sample=signal in sample well, and MIN and MAX are the respective minimum and maximum signal controls.
[formula] • Where top and bottom are normally allowed to float but may be fixed at 100 or 0 respectively in a 3-parameter fit. Y is the % inhibition and X is the compound concentration.
Molecular Biology and virus production. […] The baculovirus from the expression plasmid WRN—BV08 was generated from transfection and amplification following the manufacturer's instructions.
Sf9 cells grown in SF900II media were infected with 1:200 WRN—BV08 P2 virus and incubated for protein expression for 72 h at 27° C. The WRN protein was purified using the following protocol. The cell pellets were thawed and resuspended in buffer A (50 mM Tris, pH 7.5, 500 mM NaCl, 1 mM TCEP, 10% Glycerol) supplemented with 0.5% CHAPS, 1 mM PMSF, 1 μg/ml Leupeptin, 1 μg/ml Pepstatin, and the Pierce Universal Nuclease and cocktail tablet. Cleared lysates were loaded onto a Ni Sepharose™ excel column and washed with buffer A and bound protein was eluted with buffer A supplemented with 300 mM imidazole. The eluted protein was dialyzed against buffer A and digested by His-tagged TEV (1:5 ratio) overnight at 4° C. ZnCl2 was added into the sample at final 15 μM before loading onto a second Ni Sepharose™ excel column. Untagged WRN protein was eluted from the column with buffer A supplemented with 20 mM imidazole, dialyzed overnight into buffer B (50 mM Tris, pH 7.5, 1 mM TCEP, 10% Glycerol) supplemented with 150 mM NaCl and loaded onto a Heparin column. Proteins were eluted with a step gradient of buffer B supplemented with 150 mM, 200 mM, 300 mM and 500 mM NaCl. WRN containing fractions were pooled and concentrated prior to loading on to size exclusion chromatography using a HiLoad 16/600 Superdex™ 200 pg column (GE Healthcare) in buffer C (20 mM HTEPES, pH 7.5, 250 mM NaCl, 0.25 mM TCEP, […]).

IC50 [nM] | Structure (SMILES)
≤ 5 | CCc1c(N2CCN(C(=O)c3ncnc(C)c3O)C[C@@H]2C)c(=O)c2nc(N3CC[C@@H]4C[C@@H]43)cnc2n1CC(=O)Nc1ccc(C(F)(F)F)cc1Cl (single isomer, unassigned) [I-193]
5 to 50 | CCc1c(N2CCN(C(=O)c3ncnc(C)c3O)[C@H](C)[C@@H]2C)c(=O)c2nc(N(C)C)cnc2n1CC(=O)Nc1ccc(C(F)(F)F)cc1Cl (single isomer, unassigned) [I-198, N-(2-chloro-4-(trifluoromethyl)phenyl)-2-(2-(dimethylamino)-6-ethyl-7-(4-(5-hydroxy-6-methylpyrimidine-4-carbonyl)-2,3-dimethylpiperazin-1-yl)-8-oxopyrido[2,3-b]pyrazin-5(8H)-yl)acetamide]
50 to 100 | CCc1c(N2C[C@H]3CC[C@@H]2CN3C(=O)c2ncnc(C)c2O)c(=O)c2nc(N(C)C)cnc2n1CC(=O)Nc1ccc(C(F)(F)F)cc1Cl (single isomer, unassigned) [I-248, N-(2-chloro-4-(trifluoromethyl)phenyl)-2-(2-(dimethylamino)-6-ethyl-7-(5-(5-hydroxy-6-methylpyrimidine-4-carbonyl)-2,5-diazabicyclo[2.2.2]octan-2-yl)-8-oxopyrido[2,3-b]pyrazin-5(8H)-yl)acetamide]
5 to 50 | CCc1c(N2CCN(C(=O)c3ncnc(C)c3O)C3COCC32)c(=O)c2nc(N(C)C)cnc2n1CC(=O)Nc1ccc(C(F)(F)F)cc1Cl (single isomer, unassigned) [I-295, N-(2-chloro-4-(trifluoromethyl)phenyl)-2-(2-(dimethylamino)-6-ethyl-7-(4-(5-hydroxy-6-methylpyrimidine-4-carbonyl)hexahydrofuro[3,4-b]pyrazin-1(2H)-yl)-8-oxopyrido[2,3-b]pyrazin-5(8H)-yl)acetamide]
5 to 50 | CCc1c(N2CCN(C(=O)c3ncnc(C)c3O)[C@@H](C)C2)c(=O)c2nc(N(C)C)cnc2n1CC(=O)Nc1ccc(C(F)(F)F)cc1Cl [I-173, N-[2-chloro-4-(trifluoromethyl)phenyl]-2-[2-(dimethylamino)-6-ethyl-7-[(3S)-4-(5-hydroxy-6-methylpyrimidine-4-carbonyl)-3-methylpiperazin-1-yl]-8-oxo-5H,8H-pyrido[2,3-b]pyrazin-5-yl]acetamide]
5 to 50 | C#C[C@H]1CN(C(=O)c2ncnc(C)c2O)CCN1c1c(CC)n(CC(=O)Nc2ccc(C(F)(F)F)cc2Cl)c2ncc(N(C)C)nc2c1=O [I-260, N-[2-chloro-4-(trifluoromethyl)phenyl]-2-[2-(dimethylamino)-6-ethyl-7-[(2S)-2-ethynyl-4-(5-hydroxy-6-methylpyrimidine-4-carbonyl)piperazin-1-yl]-8-oxo-5H,8H-pyrido[2,3-b]pyrazin-5-yl]acetamide]
